Assay results reported in patent US10731222B2 (RNA Diagnostics Inc., priority 2013, dated 2020).
“Also recorded” adds a separate entry of the source.

Experiments:
[1] = test system: docetaxel-resistant A2780DXL cells; assay: RNA disruption in docetaxel-resistant cells; format: cell-based; settings: docetaxel treatment
Method: (§1) A docetaxel A2780 resistant cell line was made as described in Li et al., Int. J. Mol. Med 2004 14(20): 257-264.
A time course experiment was conducted. Sensitive parental and docetaxel resistant A2780 cells were treated with docetaxel for 24 hours. RNA was isolated and run on an Agilent Bioanalyzer.
The a\Ability of RDA to detect potentiators of docetaxel (Dxl) sensitivity. […] Thus, RDA may be used to screen for potentiators of chemotherapy drug cytotoxicity.

[2] = test system: A2780 ovarian tumour cell line; assay: Apoptosis markers in drug-treated cells (Annexin V-FITC, DNA content, PARP cleavage, caspase activity); format: cell-based, human
Method: Various cell lines were treated with anti-cancer agents and the effects of these treatments on the cellular RNA banding pattern, Annexin V-FITC binding to cells, cellular DNA content, poly ADP ribose polymerase (PARP) cleavage, and cell proliferation in the absence of drug post-treatment were assessed.

[3] = test system: Jurkat leukemia cell line; assay: Docetaxel-induced RNA disruption, Jurkat; format: cell-based
[4] = test system: parental A2780 cells; assay: Clonogenic assay, drug-sensitive parental cells; format: cell-based; settings: Homo sapiens, 50% of colony formation suppressed
From the text: (§2) RDA like clonogenic assays can be used to identify drugs that are cytotoxic (FIG. 24C iv). […] The cell lines have widely differing sensitivity to docetaxel in a clonogenic assay, with IC50 values differing by over three orders of magnitude.

[5] = test system: CaOV3 ovarian tumour cell line; assay: Docetaxel-induced RNA disruption, CaOV3; format: cell-based
[6] = test system: A2780 cells; assay: Cell counts and Recovery Assay of A2780 cells after docetaxel
[7] = test system: A2780 ovarian cancer cells; assay: RNA disruption in drug-treated A2780 cells (Agilent Bioanalyzer electropherogram, RDI); format: cell-based, human
Method: RNA was isolated from ovarian cancer cell line A2780 cells which had been treated with 10 μM docetaxel in 50% media or 20 μM epirubicin, each in 50% media. Cells were treated with the chemotherapeutic for 24 hours at 37° C. Isolated RNA was separated by microcapillary electrophoresis using the Agilent 2100 Bioanalyzer.
Cells were plated and treated with docetaxel concentrations ranging from 0.001-40 μM for 24 to 72 hours to assess the effect on cell number, RNA content, and integrity (measured using a Bioanalyzer 2100 from Agilent Technologies, Inc.).
A2780 cells treated for up to 72 hours with docetaxel at 0.005 uM and 0.2 uM, were analyzed for the amount of RNA per cell. RNA was isolated and electophoretically separated using an Agilent Bioanalyzer.
RNA was isolated and electrophoretically separated on an Agilent Bioanalyzer. As shown in FIG. 24D bands appeared just below the 28S (e.g. intermediate) and 18S bands (e.g. low banding region) at 0.005 uM and peaked at 0.2 uM.
A time course experiment was conducted in A2780 cells. Cells were treated for up to 72 hours with docetaxel at 0.005 uM and 0.2 uM. RNA was isolated and run on an Agilent Bioanalyzer.
The effect of a caspase inhibitor on RNA integrity changes was next assessed. Cells were treated with or without docetaxel at a concentration of 0.2 uM in the presence or absence of the caspase inhibitor Q-DEVD-OPH (Biovision Laboratories) at a concentration of 10 uM.

[8] = test system: docetaxel-resistant A2780DXL cells; assay: Clonogenic assay, docetaxel-resistant cells; format: cell-based; settings: 50% of colony formation suppressed
From the text: as §1, §2

**Q.** With CC(=O)O[C@@]12CO[C@@H]1C[C@H](O)[C@@]1(C)C(=O)[C@H](O)C3=C(C)[C@@H](OC(=O)[C@H](O)[C@@H](NC(=O)OC(C)(C)C)c4ccccc4)C[C@@](O)([C@@H](OC(=O)c4ccccc4)[C@H]21)C3(C)C [docetaxel] as the compound, how does the “RNA disruption / banding below 28S and 18S” value [1] read?
**A.** no banding is evident; also recorded: did not result in RNA disruption; also recorded: do not show docetaxel-induced RNA disruption

**Q.** And the “Annexin V-FITC binding” value [2]?
**A.** enhance Annexin V-FITC binding to cells

**Q.** What about the DNA laddering [2] of the same compound?
**A.** no DNA laddering was observed

**Q.** What about the PARP cleavage [2] of the same compound?
**A.** induce the cleavage of poly ADP ribose polymerase (PARP)

**Q.** And the “cellular DNA content” value [2]?
**A.** generate cells containing a sub-G1 level of DNA content

**Q.** What about the cellular caspase activity [2] of the same compound?
**A.** activated cellular caspase activity

**Q.** And the “membrane integrity (propidium iodide staining)” value ([2]; after drug-treatment)?
**A.** lack of propiclium iodide staining

**Q.** And the “docetaxel-induced RNA disruption” value [3]?
**A.** RNA disruption was also observed

**Q.** And the IC50 [4]?
**A.** ~1.1 nM

**Q.** What about the “docetaxel-induced RNA disruption” value [5] of the same compound?
**A.** RNA disruption was also observed

**Q.** And the “recovery in drug-free media” value ([6]; 5 nM)?
**A.** permitted cell recovery, but only when the incubation period was 48 hours or less

**Q.** What about the “recovery in drug-free media” value ([6]; 0.2 uM for up to 72 hours, washed and replated) of the same compound?
**A.** No resumption of cell proliferation

**Q.** And the “concentrations at which cell numbers remained constant” value ([6]; up to 72 hours)?
**A.** greater than or equal to 0.005 uM

**Q.** What about the “amount of RNA per cell” value ([7]; 0.005 uM and 0.2 uM, up to 72 hours) of the same compound?
**A.** increase in a time-dependent and dose-dependent manner

**Q.** What about the electropherogram pattern ([7]; 10 μM in 50% media, 24 hours, 37° C.) of the same compound?
**A.** an intermediate peak and a peak adjacent to the 18S peak

**Q.** What about the RDI ([7]; 0.2 micromolar, 72 hrs, 0.23 prior to drug) of the same compound?
**A.** 3.09

**Q.** And the RNA concentration ([7]; 0.2 micromolar, 72 hrs, 1220 prior to drug)?
**A.** about 359 ng/microliter

**Q.** What about the “concentration at which the novel banding peaked” value ([7]; 24 hours) of the same compound?
**A.** 0.2 µM

**Q.** And the “ratio of Low C Area/(28S+18S)” value ([7]; after 72 hr, little change at 8, 24 or 48 hr)?
**A.** dramatic increase

**Q.** What about the RIN ([7]; concentrations ≥0.005 uM) of the same compound?
**A.** did not change significantly

**Q.** And the “concentration giving reductions in cell number and RIN and increased RDI” value ([7]; dose and time-dependent)?
**A.** ≥ 0.1 µM

**Q.** What about the “response of cells in culture to the agent” value ([7]; dose- and time-dependent) of the same compound?
**A.** RNA disruption

**Q.** And the IC50 [8]?
**A.** ~650 nM
